From patent publication US20220323406A1, “METHODS AND COMPOSITIONS FOR DIFFERENTIATING STEM CELLS” (Massachusetts Institute of Technology, priority 2019, published 2022) come the findings set out here.

Molecules are shown by their SMILES.

Assay [1] has as its system ENR+CD organoids (ISC to Paneth cell differentiation). In words: Primary screen: basal (non-stimulated) lysozyme secretion LYZ.NS, 2.5-D 384-well ENR+CD organoid differentiation. It is filed as cell-based, mouse. From the text:
(§1) High-throughput screening.

A further assay concerns ENR+CD organoids. In words: Primary screen: ATP (CellTiter-Glo 3D, CTG) cell number/viability, 2.5-D 384-well ENR+CD organoids.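 Also: compounds given at plating and again on day 3 over a 6-day differentiation from ENR+CV stem-cell-enriched precursors, ATP measured on day 6, plate median as control.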
For assay [2], the system named is ENR+CD organoids (ISC to Paneth cell differentiation). Description: Primary screen: CCh-stimulated lysozyme secretion LYZ.S, 2.5-D 384-well ENR+CD organoid differentiation. The class given is cell-based, mouse. The settings on record: primary screen.
Excerpt: as §1

The mark [3] stands for this setting: primary screen, standard z score, dose 0.08 uM.
[4] abbreviates: primary screen, standard z score, dose 0.40 uM.
The mark [5] stands for this setting: primary screen, standard z score, dose 2.00 uM.
Setting [6] is: primary screen, standard z score, dose 10.00 uM.
Setting [7] is: primary screen, dose 0.08 uM, FC relative to plate median.
[8] abbreviates: primary screen, dose 0.08 uM, standard z score.
[9] abbreviates: primary screen, dose 0.40 uM, FC relative to plate median.
Setting [10] is: primary screen, dose 0.40 uM, standard z score.
Where [11] appears, read: primary screen, dose 2.00 uM, FC relative to plate median.
The mark [12] stands for this setting: primary screen, dose 2.00 uM, standard z score.
[13] abbreviates: primary screen, dose 10.00 uM, FC relative to plate median.
[14] abbreviates: primary screen, dose 10.00 uM, standard z score.
The mark [15] stands for this setting: primary screen; dose 0.08 uM; FC vs plate median.
Setting [16] is: primary screen; dose 0.40 uM; FC vs plate median.
The mark [17] stands for this setting: primary screen; dose 2.00 uM; FC vs plate median.
The mark [18] stands for this setting: primary screen; dose 10.00 uM; FC vs plate median.
The mark [19] stands for this setting: dose 0.08 uM, FC vs plate median.
Setting [20] is: dose 0.40 uM, FC vs plate median.
Where [21] appears, read: dose 2.00 uM, FC vs plate median.
[22] abbreviates: dose 10.00 uM, FC vs plate median.

Regarding `CN(C)C(=O)[C@H](O)[C@H](Cc1ccccc1)NC(=O)c1cc2cc(Cl)ccc2[nH]1` [CP-91149], the Dose.FC.LYZ.NS in assay [1] (primary screen, dose 0.08 uM) is listed as 0.177 log2 fold change; in assay [1] (primary screen, dose 0.40 uM) it was −0.033 log2 fold change; in assay [1] (primary screen, dose 2.00 uM), 0.028 log2 fold change; in assay [1] (primary screen, dose 10.00 uM) it was −0.057 log2 fold change. Further, the Z.LYZ.NS in assay [1] (setting [3]) is recorded as 1.538; in assay [1] (setting [4]), −0.289; in assay [1] (setting [5]), 0.245; in assay [1] (setting [6]), −0.498. The Dose.FC.CTG is recorded as 0.031 log2 fold change in the assay on ENR+CD organoids (primary screen, dose 0.08 uM); −0.023 log2 fold change in the assay with ENR+CD organoids (primary screen, dose 0.40 uM); −0.098 log2 fold change in the assay on ENR+CD organoids (primary screen, dose 2.00 uM); −0.100 log2 fold change with ENR+CD organoids (primary screen, dose 10.00 uM). Moreover, the Z.CTG in the assay on ENR+CD organoids (setting [3]) is given as 0.073; with ENR+CD organoids (setting [4]), −0.056; in the assay on ENR+CD organoids (setting [5]), −0.234; in the assay on ENR+CD organoids (setting [6]) it was −0.239. For the same molecule, the Dose.FC.LYZ.S is 0.186 log2 fold change in assay [2] (dose 0.08 uM), 0.055 log2 fold change in assay [2] (dose 0.40 uM), −0.121 log2 fold change in assay [2] (dose 2.00 uM) and −0.097 log2 fold change in assay [2] (dose 10.00 uM).
Consider `C[C@H](CS)C(=O)N1CCC[C@H]1C(=O)O` [Captopril], for which the Dose.FC.LYZ.NS came out at 0.059 log2 fold change in assay [1] (primary screen, dose 0.08 uM); 0.035 log2 fold change in assay [1] (primary screen, dose 0.40 uM); 0.033 log2 fold change in assay [1] (primary screen, dose 2.00 uM); 0.153 log2 fold change in assay [1] (primary screen, dose 10.00 uM). In addition, the Z.LYZ.NS is 0.511 in assay [1] (setting [3]), 0.307 in assay [1] (setting [4]), 0.285 in assay [1] (setting [5]) and 1.330 in assay [1] (setting [6]). For the same molecule, the Dose.FC.CTG in the assay with ENR+CD organoids (primary screen, dose 0.08 uM) is listed as −0.056 log2 fold change; with ENR+CD organoids (primary screen, dose 0.40 uM), 0.108 log2 fold change; with ENR+CD organoids (primary screen, dose 2.00 uM), 0.123 log2 fold change; in the assay on ENR+CD organoids (primary screen, dose 10.00 uM) it was 0.107 log2 fold change. The Dose.FC.LYZ.S in assay [2] (dose 0.08 uM) is given as 0.049 log2 fold change; in assay [2] (dose 0.40 uM), 0.109 log2 fold change; in assay [2] (dose 2.00 uM), 0.051 log2 fold change; in assay [2] (dose 10.00 uM) it was 0.077 log2 fold change.
On to `CC(C)[C@H](O)C(=O)N[C@@H](C)C(=O)N[C@@H]1C(=O)N(C)CCc2ccccc21` [Semagacestat (LY450139)], for which the Dose.FC.LYZ.NS in assay [1] (setting [7]) is listed as 0.017 log2 fold change; in assay [1] (setting [9]), −0.021 log2 fold change; in assay [1] (setting [11]), −0.081 log2 fold change; in assay [1] (setting [13]) it was −0.108 log2 fold change. Moreover, the Z.LYZ.NS in assay [1] (setting [8]) is reported as 0.151; in assay [1] (setting [10]), −0.181; in assay [1] (setting [12]), −0.704; in assay [1] (setting [14]), −0.942. Besides, the Dose.FC.CTG with ENR+CD organoids (setting [7]) is on record as 0.141 log2 fold change; with ENR+CD organoids (setting [9]) it was −0.207 log2 fold change; in the assay on ENR+CD organoids (setting [11]), −0.128 log2 fold change; in the assay on ENR+CD organoids (setting [13]) it was −0.856 log2 fold change. The Z.CTG with ENR+CD organoids (setting [8]) is 0.338; with ENR+CD organoids (setting [10]), −0.494; with ENR+CD organoids (setting [12]) it was −0.306; with ENR+CD organoids (setting [14]), −2.045. The Dose.FC.LYZ.S in assay [2] (dose 0.08 uM, FC relative to plate median) is −0.014 log2 fold change; in assay [2] (dose 0.40 uM, FC relative to plate median), −0.006 log2 fold change; in assay [2] (dose 2.00 uM, FC relative to plate median), −0.081 log2 fold change; in assay [2] (dose 10.00 uM, FC relative to plate median), −0.162 log2 fold change.
Regarding `Nc1nc(CC(=O)Nc2ccc(CCNC[C@H](O)c3ccccc3)cc2)cs1` [Mirabegron], the Z.LYZ.NS in assay [1] (setting [8]) is recorded as 1.201; in assay [1] (setting [10]), −0.259; in assay [1] (setting [12]), −0.301; in assay [1] (setting [14]), 0.193. Also, the Dose.FC.LYZ.NS in assay [1] (setting [15]) is given as 0.138 log2 fold change; in assay [1] (setting [16]), −0.030 log2 fold change; in assay [1] (setting [17]), −0.035 log2 fold change; in assay [1] (setting [18]) it was 0.022 log2 fold change. In addition, the Dose.FC.CTG was 0.029 log2 fold change in the assay on ENR+CD organoids (setting [15]), −0.335 log2 fold change in the assay on ENR+CD organoids (setting [16]), 0.019 log2 fold change in the assay on ENR+CD organoids (setting [17]) and −0.051 log2 fold change in the assay with ENR+CD organoids (setting [18]). In addition, the Dose.FC.LYZ.S was 0.148 log2 fold change in assay [2] (setting [19]), −0.016 log2 fold change in assay [2] (setting [20]), −0.049 log2 fold change in assay [2] (setting [21]) and −0.010 log2 fold change in assay [2] (setting [22]).
As for `O=c1cc(N2CCOCC2)oc2c1ccc1ccccc12` [NU7026], the Z.LYZ.NS is listed as 0.198 in assay [1] (setting [8]), 0.198 in assay [1] (setting [10]), −0.507 in assay [1] (setting [12]) and −1.380 in assay [1] (setting [14]). For the same molecule, the Dose.FC.LYZ.NS is reported as 0.023 log2 fold change in assay [1] (setting [15]), 0.023 log2 fold change in assay [1] (setting [16]), −0.058 log2 fold change in assay [1] (setting [17]) and −0.158 log2 fold change in assay [1] (setting [18]). The Z.CTG is listed as 0.230 in the assay on ENR+CD organoids (setting [8]), 0.248 in the assay with ENR+CD organoids (setting [10]), 0.255 in the assay with ENR+CD organoids (setting [12]) and −0.284 with ENR+CD organoids (setting [14]). Besides, the Dose.FC.CTG was 0.096 log2 fold change in the assay with ENR+CD organoids (setting [15]), 0.104 log2 fold change with ENR+CD organoids (setting [16]), 0.107 log2 fold change with ENR+CD organoids (setting [17]) and −0.119 log2 fold change in the assay on ENR+CD organoids (setting [18]). Also, the Dose.FC.LYZ.S is reported as 0.021 log2 fold change in assay [2] (setting [19]), 0.034 log2 fold change in assay [2] (setting [20]), −0.056 log2 fold change in assay [2] (setting [21]) and −0.198 log2 fold change in assay [2] (setting [22]).
For `Cc1ccccc1C(=O)Nc1ccc(C(=O)N2CCCC(N(C)C)c3ccccc32)cc1` (stereo not drawn) [Mozavaptan], the Z.LYZ.NS is on record as 0.584 in assay [1] (setting [8]), −0.233 in assay [1] (setting [10]), 0.294 in assay [1] (setting [12]) and −1.752 in assay [1] (setting [14]). Further, the Dose.FC.LYZ.NS in assay [1] (setting [15]) is on record as 0.067 log2 fold change; in assay [1] (setting [16]), −0.027 log2 fold change; in assay [1] (setting [17]) it was 0.034 log2 fold change; in assay [1] (setting [18]), −0.201 log2 fold change. In addition, the Dose.FC.CTG with ENR+CD organoids (setting [15]) is reported as 0.320 log2 fold change; in the assay on ENR+CD organoids (setting [16]), 0.235 log2 fold change; with ENR+CD organoids (setting [17]) it was 0.108 log2 fold change; in the assay with ENR+CD organoids (setting [18]) it was −0.336 log2 fold change. The Dose.FC.LYZ.S in assay [2] (setting [19]) is 0.086 log2 fold change; in assay [2] (setting [20]) it was 0.165 log2 fold change; in assay [2] (setting [21]), 0.106 log2 fold change; in assay [2] (setting [22]), −0.270 log2 fold change.
Regarding `CCCCCCCCCCCCCCCCn1cc[n+](Cc2ccccc2)c1C.[I-]` [NH125], the Z.LYZ.NS in assay [1] (setting [8]) is −0.301; in assay [1] (setting [10]), −1.634; in assay [1] (setting [12]), −1.904; in assay [1] (setting [14]) it was −2.293. Further, the Dose.FC.LYZ.NS in assay [1] (setting [15]) is listed as −0.035 log2 fold change; in assay [1] (setting [16]) it was −0.188 log2 fold change; in assay [1] (setting [17]) it was −0.219 log2 fold change; in assay [1] (setting [18]) it was −0.263 log2 fold change. Also, the Z.CTG is on record as −0.829 with ENR+CD organoids (setting [8]), −1.213 in the assay with ENR+CD organoids (setting [10]), −2.641 in the assay on ENR+CD organoids (setting [12]) and −4.268 in the assay on ENR+CD organoids (setting [14]). Besides, the Dose.FC.CTG was −0.347 log2 fold change with ENR+CD organoids (setting [15]), −0.508 log2 fold change with ENR+CD organoids (setting [16]), −1.106 log2 fold change with ENR+CD organoids (setting [17]) and −1.787 log2 fold change with ENR+CD organoids (setting [18]). In addition, the Dose.FC.LYZ.S in assay [2] (setting [19]) is given as −0.114 log2 fold change; in assay [2] (setting [20]), −0.237 log2 fold change; in assay [2] (setting [21]) it was −0.358 log2 fold change; in assay [2] (setting [22]) it was −0.374 log2 fold change.
As to `COC(=O)C1=C(C#N)NC(C)=C(C(=O)OC(C)C)C1c1cccc([N+](=O)[O-])c1` (stereo not drawn) [Nilvadipine], the Z.LYZ.NS worked out at 0.857 in assay [1] (setting [8]), 0.034 in assay [1] (setting [10]), 0.500 in assay [1] (setting [12]) and 0.082 in assay [1] (setting [14]). Moreover, the Dose.FC.LYZ.NS worked out at 0.098 log2 fold change in assay [1] (setting [15]), 0.004 log2 fold change in assay [1] (setting [16]), 0.057 log2 fold change in assay [1] (setting [17]) and 0.009 log2 fold change in assay [1] (setting [18]). The Dose.FC.CTG is reported as 0.206 log2 fold change in the assay with ENR+CD organoids (setting [15]), 0.135 log2 fold change in the assay on ENR+CD organoids (setting [16]), 0.212 log2 fold change with ENR+CD organoids (setting [17]) and 0.192 log2 fold change with ENR+CD organoids (setting [18]). Moreover, the Dose.FC.LYZ.S in assay [2] (setting [19]) is listed as 0.088 log2 fold change; in assay [2] (setting [20]), 0.013 log2 fold change; in assay [2] (setting [21]) it was 0.071 log2 fold change; in assay [2] (setting [22]) it was −0.008 log2 fold change.
